In the assay the target is Calcium-activated potassium channel subunit alpha-1 (Homo sapiens) (UniProt Q12791). Put plainly: Channel opening activity at human BKalpha channel expressed in CHOK1 cells assessed as ionic current amplitude at 30 uM at holding potential of -90 mV by population patch clamp technique relative to untreated control. It is filed as cell-based. Conditions: CHO-K1. A general note: In patch-clamp work, channel activity is measured electrically.
Chain of Calcium-activated potassium channel subunit alpha-1 (Homo sapiens) (Q12791 whole entry): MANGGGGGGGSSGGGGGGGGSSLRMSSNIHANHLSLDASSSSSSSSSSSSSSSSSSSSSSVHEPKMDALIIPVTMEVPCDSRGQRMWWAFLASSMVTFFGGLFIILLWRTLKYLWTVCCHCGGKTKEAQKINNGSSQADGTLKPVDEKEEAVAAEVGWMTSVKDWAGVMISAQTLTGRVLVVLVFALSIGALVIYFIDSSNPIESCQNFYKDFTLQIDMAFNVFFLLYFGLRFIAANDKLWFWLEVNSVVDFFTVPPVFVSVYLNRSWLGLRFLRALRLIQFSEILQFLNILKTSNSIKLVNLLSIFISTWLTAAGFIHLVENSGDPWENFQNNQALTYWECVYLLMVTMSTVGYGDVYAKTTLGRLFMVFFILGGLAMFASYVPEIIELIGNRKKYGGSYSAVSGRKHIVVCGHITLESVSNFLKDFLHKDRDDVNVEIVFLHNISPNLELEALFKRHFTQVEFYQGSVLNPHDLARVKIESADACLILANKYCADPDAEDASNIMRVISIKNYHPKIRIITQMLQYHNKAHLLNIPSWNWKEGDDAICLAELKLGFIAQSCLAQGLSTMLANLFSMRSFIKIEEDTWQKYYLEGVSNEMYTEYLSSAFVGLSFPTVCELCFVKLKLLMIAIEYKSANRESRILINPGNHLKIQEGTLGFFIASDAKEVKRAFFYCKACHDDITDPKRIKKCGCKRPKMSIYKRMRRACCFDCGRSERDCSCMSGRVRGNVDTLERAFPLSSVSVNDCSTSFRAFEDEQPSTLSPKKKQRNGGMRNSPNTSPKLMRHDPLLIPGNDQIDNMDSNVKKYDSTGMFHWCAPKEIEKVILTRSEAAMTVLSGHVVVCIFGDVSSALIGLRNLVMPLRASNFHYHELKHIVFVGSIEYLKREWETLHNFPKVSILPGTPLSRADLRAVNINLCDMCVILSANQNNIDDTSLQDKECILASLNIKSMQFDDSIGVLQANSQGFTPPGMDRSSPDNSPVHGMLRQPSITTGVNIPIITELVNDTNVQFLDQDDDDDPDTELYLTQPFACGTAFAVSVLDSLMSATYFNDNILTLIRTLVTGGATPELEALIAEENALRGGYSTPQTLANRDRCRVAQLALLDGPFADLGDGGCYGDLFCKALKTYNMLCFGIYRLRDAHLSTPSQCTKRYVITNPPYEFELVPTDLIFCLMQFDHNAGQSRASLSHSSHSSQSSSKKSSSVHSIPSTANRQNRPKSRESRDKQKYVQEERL
For `CC(C)c1c(Cl)cc2c(c1Cl)CC[C@H]1[C@](C)(C(=O)O)CCC[C@]21C`, the Activity came to 180%.

Regarding `CC(C)c1cc2c(cc1NC(=O)Nc1cc(Cl)cc(Cl)c1)[C@@]1(C)CCC[C@@](C)(C(=O)O)[C@@H]1CC2`, the Activity was found to be 151%.

Consider `CC(C)c1cc2c(cc1NC(=O)c1ccccc1)[C@@]1(C)CCC[C@@](C)(C(=O)O)[C@@H]1CC2`, for which the Activity was found to be 90%.

For `CCNC(=O)Nc1cc2c(cc1C(C)C)CC[C@H]1[C@](C)(C(=O)O)CCC[C@]21C`, the Activity is 89.9%.

On to `CCCOc1cc2c(cc1C(C)C)CC[C@H]1[C@](C)(C(=O)O)CCC[C@]21C`, for which the Activity was 118%.

Consider `CC(C)c1cc2c(cc1NC(=O)Nc1ccc(F)c(F)c1)[C@@]1(C)CCC[C@@](C)(C(=O)O)[C@@H]1CC2`, for which the Activity came to 139%.

For `CC(C)c1cc2c(cc1NC(=O)c1ccc(Cl)cc1)[C@@]1(C)CCC[C@@](C)(C(=O)O)[C@@H]1CC2`, the Activity is 108%.

Consider `CC(C)c1c([N+](=O)[O-])cc2c(c1[N+](=O)[O-])CC[C@H]1[C@](C)(C(=O)O)CCC[C@]21C`, for which the Activity was found to be 200%.

Regarding `CC(C)c1cc2c(cc1NC(=O)c1cccc(C(F)(F)F)c1)[C@@]1(C)CCC[C@@](C)(C(=O)O)[C@@H]1CC2`, the Activity was found to be 92.5%.

As for `CC(C)c1cc2c(cc1NC(=O)C1CCCCC1)[C@@]1(C)CCC[C@@](C)(C(=O)O)[C@@H]1CC2`, the Activity is 95.9%.

In the case of `CC(C)C(=O)Nc1cc2c(cc1C(C)C)CC[C@H]1[C@](C)(C(=O)O)CCC[C@]21C`, the Activity turned out to be 130%.

Turning to `CC(C)c1cc2c(cc1O)[C@@]1(C)CCC[C@@](C)(C(=O)O)[C@@H]1CC2`, the Activity was 83%.

Consider `COc1ccccc1C(=O)Nc1cc2c(cc1C(C)C)CC[C@H]1[C@](C)(C(=O)O)CCC[C@]21C`, for which the Activity was found to be 86.5%.

For the molecule `CC(C)c1cc2c(cc1OCCCc1ccccc1)[C@@]1(C)CCC[C@@](C)(C(=O)O)[C@@H]1CC2`, the Activity is 93.2%.

In the case of `CC(C)c1cc2c(cc1OCc1ccc3ccccc3c1)[C@@]1(C)CCC[C@@](C)(C(=O)O)[C@@H]1CC2`, the Activity worked out at 83.7%.

Consider `CC(=O)Nc1cc2c(cc1C(C)C)CC[C@H]1[C@](C)(C(=O)O)CCC[C@]21C`, for which the Activity was found to be 96.1%.

Consider `CC(C)c1cc2c(cc1NC(=O)Nc1cc(C(F)(F)F)ccc1Cl)[C@@]1(C)CCC[C@@](C)(C(=O)O)[C@@H]1CC2`, for which the Activity turned out to be 128%.

As for `CC(C)c1cc2c(cc1NC(=O)Cc1ccccc1)[C@@]1(C)CCC[C@@](C)(C(=O)O)[C@@H]1CC2`, the Activity is 90.9%.

As for `CC(C)c1cc2c(cc1OCc1ccc(Cl)cc1)[C@@]1(C)CCC[C@@](C)(C(=O)O)[C@@H]1CC2`, the Activity came to 91.6%.

As for `CC(C)c1cc2c(cc1NC(=O)Nc1ccc(C(F)(F)F)cc1)[C@@]1(C)CCC[C@@](C)(C(=O)O)[C@@H]1CC2`, the Activity stood at 138%.

For `CC(C)c1cc2c(cc1NC(=O)c1ccccc1C(F)(F)F)[C@@]1(C)CCC[C@@](C)(C(=O)O)[C@@H]1CC2`, the Activity amounted to 59.4%.

For the molecule `CC(C)Oc1cc2c(cc1C(C)C)CC[C@H]1[C@](C)(C(=O)O)CCC[C@]21C`, the Activity amounted to 125%.

As to `CC(C)c1cc2c(cc1NC(=O)Nc1cc(C(F)(F)F)cc(C(F)(F)F)c1)[C@@]1(C)CCC[C@@](C)(C(=O)O)[C@@H]1CC2`, the Activity was determined as 132%.

Consider `CC(C)c1cc2c(cc1NC(=O)Nc1ccc(F)c(Cl)c1)[C@@]1(C)CCC[C@@](C)(C(=O)O)[C@@H]1CC2`, for which the Activity came to 156%.

As to `COc1ccc(C(=O)Nc2cc3c(cc2C(C)C)CC[C@H]2[C@](C)(C(=O)O)CCC[C@]32C)cc1`, the Activity worked out at 94.1%.

As for `CC(C)c1cc2c(cc1NC(=O)Nc1cccc(Cl)c1)[C@@]1(C)CCC[C@@](C)(C(=O)O)[C@@H]1CC2`, the Activity was 136%.

`CCCC(=O)Nc1cc2c(cc1C(C)C)CC[C@H]1[C@](C)(C(=O)O)CCC[C@]21C`: the Activity came to 92.4%.

Turning to `CC(C)c1cc2c(cc1NC(=O)c1ccc(F)cc1)[C@@]1(C)CCC[C@@](C)(C(=O)O)[C@@H]1CC2`, the Activity was found to be 83.4%.

Take `CC(C)c1cc2c(cc1OCc1ccccc1)[C@@]1(C)CCC[C@@](C)(C(=O)O)[C@@H]1CC2`: the Activity was 89.5%.

`CC(C)c1c(N)cc2c(c1N)CC[C@H]1[C@](C)(C(=O)O)CCC[C@]21C`: the Activity is 110%.

Consider `COc1ccc(NC(=O)Nc2cc3c(cc2C(C)C)CC[C@H]2[C@](C)(C(=O)O)CCC[C@]32C)cc1`, for which the Activity is 107%.

On to `COc1cc2c(cc1C(C)C)CC[C@H]1[C@](C)(C(=O)O)CCC[C@]21C`, for which the Activity was 85.9%.

Regarding `CC(C)c1cc2c(cc1NC(=O)C1CC1)[C@@]1(C)CCC[C@@](C)(C(=O)O)[C@@H]1CC2`, the Activity came out at 91.6%.

With `CC(C)c1cc2c(cc1NC(=O)CN1CCCCC1)[C@@]1(C)CCC[C@@](C)(C(=O)O)[C@@H]1CC2`, the Activity stood at 107%.

As for `CC(C)c1cc2c(cc1NC(=O)c1ccc(C(F)(F)F)cc1)[C@@]1(C)CCC[C@@](C)(C(=O)O)[C@@H]1CC2`, the Activity was 128%.

`CCCCCCCCCCCC(=O)Nc1cc2c(cc1C(C)C)CC[C@H]1[C@](C)(C(=O)O)CCC[C@]21C`: the Activity stood at 103%.

`CCCCCCOc1cc2c(cc1C(C)C)CC[C@H]1[C@](C)(C(=O)O)CCC[C@]21C`: the Activity came out at 78.7%.

As for `CC(C)c1cc2c(cc1NC(=S)Nc1cccc(C(F)(F)F)c1)[C@@]1(C)CCC[C@@](C)(C(=O)O)[C@@H]1CC2`, the Activity was 143%.

In the case of `CC(C)c1cc2c(cc1NC(=S)Nc1cc(C(F)(F)F)cc(C(F)(F)F)c1)[C@@]1(C)CCC[C@@](C)(C(=O)O)[C@@H]1CC2`, the Activity came to 240%.

Take `CC(C)c1cc2c(cc1N)[C@@]1(C)CCC[C@@](C)(C(=O)O)[C@@H]1CC2`: the Activity amounted to 88.9%.

As to `CC(C)c1cc2c(cc1NC(=O)Nc1ccccc1)[C@@]1(C)CCC[C@@](C)(C(=O)O)[C@@H]1CC2`, the Activity was found to be 72.7%.

In the case of `CC(C)c1cc2c(cc1NC(=O)Nc1ccccc1C(F)(F)F)[C@@]1(C)CCC[C@@](C)(C(=O)O)[C@@H]1CC2`, the Activity came to 114%.

As for `CC(C)c1ccc2c(c1N)CC[C@H]1[C@](C)(C(=O)O)CCC[C@]21C`, the Activity worked out at 88.2%.

In the case of `CC(C)c1cc2c(cc1NC(=O)Nc1cccc(C(F)(F)F)c1)[C@@]1(C)CCC[C@@](C)(C(=O)O)[C@@H]1CC2`, the Activity was determined as 99.9%.

As to `CCC(=O)Nc1cc2c(cc1C(C)C)CC[C@H]1[C@](C)(C(=O)O)CCC[C@]21C`, the Activity worked out at 90.2%.

In the case of `CCCCCCCCCOc1cc2c(cc1C(C)C)CC[C@H]1[C@](C)(C(=O)O)CCC[C@]21C`, the Activity was 81.8%.

For the molecule `COc1ccc(Cl)cc1NC(=O)Nc1cc2c(cc1C(C)C)CC[C@H]1[C@](C)(C(=O)O)CCC[C@]21C`, the Activity was determined as 94.4%.

Regarding `CC(C)c1cc2c(cc1NC(=O)c1cc(C(F)(F)F)cc(C(F)(F)F)c1)[C@@]1(C)CCC[C@@](C)(C(=O)O)[C@@H]1CC2`, the Activity amounted to 81.8%.

In the case of `CC(C)c1cc2c(cc1NC(=O)Nc1ccc(Cl)c(C(F)(F)F)c1)[C@@]1(C)CCC[C@@](C)(C(=O)O)[C@@H]1CC2`, the Activity turned out to be 168%.
